One assay concerns the target T1, rat mGluR5 receptor (Rattus norvegicus, UniProt P31424).
T1 construct: expressed in transfected cells; host or cells: HEK-293
Briefly: [3H]-MPEP displacement binding assay, HEK-293 cell membranes expressing rat mGluR5. As to conditions: [3H]-MPEP displacement, rat mGluR5; read-out: Median Ki. An outline of the steps: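 Membranes from HEK-293 cells expressing rat mGluR5 (12-25 μg protein), incubated 60 min at room temperature with 4 nM [3H]-MPEP in 50 mM Tris pH 7.5, then filtered. Nonspecific binding defined with 10 μM MPEP.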

The target in a further assay is mGluR5 (Rattus norvegicus, UniProt P31424). The assay can be described thus: IC50 column under 'Biological Activity' (assay not identified in the shown text; not the binding Ki).
Sequence of mGluR5 (P31424 21-1203): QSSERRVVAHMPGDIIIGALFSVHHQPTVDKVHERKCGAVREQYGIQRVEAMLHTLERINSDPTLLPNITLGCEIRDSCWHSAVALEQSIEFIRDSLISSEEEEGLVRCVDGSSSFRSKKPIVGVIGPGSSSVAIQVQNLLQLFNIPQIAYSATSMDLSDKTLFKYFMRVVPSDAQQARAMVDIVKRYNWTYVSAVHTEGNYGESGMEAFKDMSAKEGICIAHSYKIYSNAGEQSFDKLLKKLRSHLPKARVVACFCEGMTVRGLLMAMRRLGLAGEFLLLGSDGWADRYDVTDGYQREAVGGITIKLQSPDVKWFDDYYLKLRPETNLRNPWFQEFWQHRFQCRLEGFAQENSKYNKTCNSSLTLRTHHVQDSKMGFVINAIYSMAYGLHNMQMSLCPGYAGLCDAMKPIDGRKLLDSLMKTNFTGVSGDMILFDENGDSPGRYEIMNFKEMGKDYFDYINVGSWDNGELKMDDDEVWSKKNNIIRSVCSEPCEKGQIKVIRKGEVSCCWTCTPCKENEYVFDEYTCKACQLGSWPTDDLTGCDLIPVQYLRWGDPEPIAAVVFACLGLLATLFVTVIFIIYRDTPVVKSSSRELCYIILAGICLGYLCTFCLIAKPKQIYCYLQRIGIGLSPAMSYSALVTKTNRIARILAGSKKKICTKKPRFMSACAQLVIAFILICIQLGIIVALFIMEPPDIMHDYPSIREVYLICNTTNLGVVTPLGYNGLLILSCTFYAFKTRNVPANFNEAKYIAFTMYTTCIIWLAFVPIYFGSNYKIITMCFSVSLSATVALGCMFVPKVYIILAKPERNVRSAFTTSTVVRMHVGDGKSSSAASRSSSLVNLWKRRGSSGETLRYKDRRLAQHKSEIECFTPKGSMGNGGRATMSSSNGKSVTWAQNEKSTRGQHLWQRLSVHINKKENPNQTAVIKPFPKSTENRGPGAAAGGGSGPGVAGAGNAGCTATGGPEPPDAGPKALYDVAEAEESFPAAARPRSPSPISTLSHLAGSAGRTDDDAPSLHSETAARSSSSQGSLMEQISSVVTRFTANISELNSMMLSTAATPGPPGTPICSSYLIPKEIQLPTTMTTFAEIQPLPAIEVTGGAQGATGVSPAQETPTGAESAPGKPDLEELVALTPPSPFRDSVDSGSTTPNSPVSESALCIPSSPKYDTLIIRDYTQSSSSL

T1 sequence (P31424 21-1203): as above

Regarding `COc1ccc(C(=O)N2CCN(c3ccc(Cl)cn3)CC2)cc1C#Cc1ccccn1` [Compound 188, 1-(5-chloropyridin-2-yl)-4-[4-methoxy-3-(pyridin-2-ylethynyl)benzoyl]piperazine], the inhibition constant (Ki) on rat mGluR5 receptor is 7 nM. The molecule also displayed an IC50 at mGluR5 of 86 nM.
Regarding `COc1ccc(C(=O)N2CCN(c3cccc(Cl)c3)CC2)cc1C#Cc1ccccn1` [Compound 189, 1-(3-chlorophenyl)-4-[4-methoxy-3-(pyridin-2-ylethynyl)benzoyl]piperazine], the inhibition constant (Ki) at rat mGluR5 receptor stood at 4 nM. On mGluR5, this molecule showed an IC50 of 148 nM.
As to `COc1ccc(C(=O)N2CCN(c3ncc(C(F)(F)F)cc3Cl)CC2)cc1C#Cc1ccccn1` [Compound 190, 1-[3-chloro-5-(trifluoromethyl)pyridin-2-yl]-4-[4-methoxy-3-(pyridin-2-ylethynyl)benzoyl]piperazine], at rat mGluR5 receptor, the Ki is 413 nM. Moreover, at mGluR5, the IC50 was 408 nM.
On to `COc1ccc(C(=O)N2CCN(c3cc(C)ccn3)CC2)cc1C#Cc1ccccn1` [Compound 191, 1-[4-methoxy-3-(pyridin-2-ylethynyl)benzoyl]-4-(4-methylpyridin-2-yl)piperazine], for which, on rat mGluR5 receptor, the Ki turned out to be 19 nM. Besides, at mGluR5, the IC50 came to 31 nM.
For `COc1ccc(C(=O)N2CCN(c3nc(C)cc(C)n3)CC2)cc1C#Cc1ccccn1` [Compound 192, 2-{4-[4-methoxy-3-(pyridin-2-ylethynyl)benzoyl]piperazin-1-yl}-4,6-dimethylpyrimidine], in that order: 45 nM and 109 nM.
`COc1ccc(C(=O)N2CCN(c3nccnc3C#N)CC2)cc1C#Cc1ccccn1` [Compound 193, 3-{4-[4-methoxy-3-(pyridin-2-ylethynyl)benzoyl]piperazin-1-yl}pyrazine-2-carbonitrile]: the Ki at rat mGluR5 receptor amounted to 34 nM. This molecule also had an IC50 at mGluR5 of 46 nM.
For `COc1ccc(C(=O)N2CCN(c3nccc(C(F)(F)F)n3)CC2)cc1C#Cc1ccccn1` [Compound 194, 2-{4-[4-methoxy-3-(pyridin-2-ylethynyl)benzoyl]piperazin-1-yl}-4-(trifluoromethyl)pyrimidine], in that order: 4 nM and 78 nM.
In the case of `COc1ccc(C(=O)N2CCN(c3cccc(O)c3)CC2)cc1C#Cc1ccccn1` [Compound 195, 3-{4-[4-methoxy-3-(pyridin-2-ylethynyl)benzoyl]piperazin-1-yl}phenol], the Ki at rat mGluR5 receptor came out at 26 nM. Moreover, the IC50 at mGluR5 came to 702 nM.
For `COc1ccc(C(=O)N2CCN(c3cccc(C)c3)CC2)cc1C#Cc1ccccn1` [Compound 196, 1-[4-methoxy-3-(pyridin-2-ylethynyl)benzoyl]-4-(3-methylphenyl)piperazine] the same measures were 16 nM and 65 nM.
With `COc1ccc(C(=O)N2CCN(c3ncc(Br)c(OC)n3)CC2)cc1C#Cc1ccccn1` [Compound 197, 5-bromo-4-methoxy-2-{4-[4-methoxy-3-(pyridin-2-ylethynyl)benzoyl]piperazin-1-yl}pyrimidine], the Ki at rat mGluR5 receptor amounted to 12 nM. Moreover, the IC50 on mGluR5 came out at 56 nM.
As for `COc1ccc(C(=O)N2C[C@H]3C[C@H]2CN3c2ccc(Cl)cc2)cc1C#Cc1ccccn1` [Compound 199, (1R,4S)-2-(4-chlorophenyl)-5-[4-methoxy-3-(pyridin-2-ylethynyl)benzoyl]-2,5-diazabicyclo[2.2.1]heptane], on rat mGluR5 receptor, the Ki worked out at 76 nM. The IC50 at mGluR5 was more than 1000 nM.
In the case of `COc1ccnc(N2CCN(C(=O)c3ccc(OC)c(C#Cc4ccccn4)c3)CC2)n1` [Compound 200, 4-methoxy-2-{4-[4-methoxy-3-(pyridin-2-ylethynyl)benzoyl]piperazin-1-yl}pyrimidine], the Ki at rat mGluR5 receptor is 21 nM. Moreover, the IC50 at mGluR5 worked out at 24 nM.
Consider `COc1ccc(C(=O)N2CCN(c3nsc4ccccc34)CC2)cc1C#Cc1ccccn1` [Compound 201, 3-{4-[4-methoxy-3-(pyridin-2-ylethynyl)benzoyl]piperazin-1-yl}-1,2-benzisothiazole], for which the Ki on rat mGluR5 receptor was 3 nM. The molecule further came in with an IC50 at mGluR5 of 24 nM.
With `COc1ccc(C(=O)N2CCN(c3cncc(C)n3)CC2)cc1C#Cc1ccccn1` [Compound 204, 2-{4-[4-methoxy-3-(pyridin-2-ylethynyl)benzoyl]piperazin-1-yl}-6-methylpyrazine], at rat mGluR5 receptor, the Ki is 29 nM. At mGluR5, this molecule returned an IC50 of 132 nM.
`COc1ccc(C(=O)N2CCCN(c3ccccn3)CC2)cc1C#Cc1ccccn1` [Compound 205, 1-[4-methoxy-3-(pyridin-2-ylethynyl)benzoyl]-4-pyridin-2-yl-1,4-diazepane]: at rat mGluR5 receptor, the Ki was 131 nM. The molecule further displayed an IC50 at mGluR5 of more than 1000 nM.
For `COc1ccc(C(=O)N2CCN(c3nnc(C(F)(F)F)s3)CC2)cc1C#Cc1ccccn1` [Compound 206, 1-[4-methoxy-3-(pyridin-2-ylethynyl)benzoyl]-4-[5-(trifluoromethyl)-1,3,4-thiadiazol-2-yl]piperazine], the Ki at rat mGluR5 receptor turned out to be 66 nM. The IC50 at mGluR5 is 295 nM.
For `COc1ccc(C(=O)N2C[C@H]3C[C@H]2CN3c2cccc(F)c2)cc1C#Cc1ccccn1` [Compound 207, (1R,4S)-2-(3-fluorophenyl)-5-[4-methoxy-3-(pyridin-2-ylethynyl)benzoyl]-2,5-diazabicyclo[2.2.1]heptane] the same measures were 19 nM and 306 nM.
Regarding `COc1ccc(C(=O)N2CCN(c3ncccc3C)CC2)cc1C#Cc1ccccn1` [Compound 208, 1-[4-methoxy-3-(pyridin-2-ylethynyl)benzoyl]-4-(3-methylpyridin-2-yl)piperazine], the Ki on rat mGluR5 receptor is 21 nM. On mGluR5, this molecule displayed an IC50 of 141 nM.
As for `COc1cccc(N2CCN(C(=O)c3ccc(OC)c(C#Cc4ccccn4)c3)CC2)n1` [Compound 213, 1-(6-methoxypyridin-2-yl)-4-[4-methoxy-3-(pyridin-2-ylethynyl)benzoyl]piperazine], the Ki on rat mGluR5 receptor stood at 11 nM. On mGluR5, this molecule showed an IC50 of 86 nM.
As to `COc1ccc(C(=O)N2CCN(c3ccccc3Cl)CC2)cc1C#Cc1ccccn1` [Compound 216, 1-(2-chlorophenyl)-4-[4-methoxy-3-(pyridin-2-ylethynyl)benzoyl]piperazine], the Ki at rat mGluR5 receptor was 107 nM. For the same molecule, the IC50 on mGluR5 is more than 1000 nM.
For `COc1ccc(C(=O)N2CCN(c3ccc(Cl)cc3)CC2)cc1C#Cc1ccccn1` [Compound 217, 1-(4-chlorophenyl)-4-[4-methoxy-3-(pyridin-2-ylethynyl)benzoyl]piperazine], in that order: 27 nM and 336 nM.
With `COc1ccc(C(=O)N2CCN(c3ccc(Cl)c(Cl)c3)CC2)cc1C#Cc1ccccn1` [Compound 218, 1-(3,4-dichlorophenyl)-4-[4-methoxy-3-(pyridin-2-ylethynyl)benzoyl]piperazine], the Ki on rat mGluR5 receptor amounted to 48 nM. The molecule also had an IC50 on mGluR5 of more than 1000 nM.
Take `COc1ccc(C(=O)N2CCN(c3cccc(C)c3C)CC2)cc1C#Cc1ccccn1` [Compound 219, 1-(2,3-dimethylphenyl)-4-[4-methoxy-3-(pyridin-2-ylethynyl)benzoyl]piperazine]: the inhibitory constant (Ki) on rat mGluR5 receptor was found to be 168 nM. The same molecule yielded an IC50 at mGluR5 of more than 1000 nM.
`COc1ccc(C(=O)N2CCN(c3cc(C)nc(C(C)C)n3)CC2)cc1C#Cc1ccccn1` [Compound 220, 2-isopropyl-4-{4-[4-methoxy-3-(pyridin-2-ylethynyl)benzoyl]piperazin-1-yl}-6-methylpyrimidine]: the Ki on rat mGluR5 receptor was 89 nM. In addition, the IC50 on mGluR5 is more than 1000 nM.

For the origin of these results see patent publication US20090325964A1, “Piperazine Metabotropic Glutamate Receptor 5 (MGLUR5) Negative Allosteric Modulators For Anxiety/Depression” (Wyeth, priority 2008, published 2009).
